Results reported in US20260049071A1, “PROTEIN TYROSINE KINASE INHIBITOR AND MEDICAL USE THEREOF” (BEYANG THERAPEUTICS CO., LTD., priority 2022, published 2026).

What was measured:
[1] = biological target: KDR (VEGFR2) (Homo sapiens (Human), UniProt P35968); assay: Kinase inhibition, Mobility Shift Assay (VEGFR2); assay type: biochemical
Method: (§1) This assay directly monitored the ability of compounds to inhibit kinase phosphorylation by measuring non-phosphorylated and phosphorylated substrates in kinase reactions by using Mobility Shift Assays/IMAP™ analysis.
(§2) Add the kinase and DTT to 1× kinase buffer to form a 2.5× kinase solution; transfer 10 μL of 2.5× kinase solution to a 384-well reaction plate and add 1× kinase buffer to negative control wells. Incubate the plate for 10 min at room temperature; add FAM-labeled peptides, MgCl2, ATP and other reagents to 1× kinase buffer to form a 2.5× substrate solution; transfer 10 μL of the above 2.5× substrate solution to the 384-well reaction plate; incubate the plate at 28° C. for different times, and add 25 μL of stop solution to the 384-well reaction plate to stop the reaction. Read the conversion ratio data on CaliperEZ Reader II. Convert conversion rates into inhibition ratio data.
(§3) “Min” indicates the readout of the control well without the addition of kinase; and “Max” indicates the readout of the control well with the addition of DMSO. Fit IC50 values with XLFit excel add-in version 5.4.0.8.
(§4) X indicates the log value of compound concentration, and Y indicates the inhibition ratio (% inhibition).

[2] = biological target: EGFR (Homo sapiens (Human), UniProt P00533); assay: Kinase inhibition, Mobility Shift Assay (EGFR); assay type: biochemical
Method: as §1, §2, §3, §4

Chain of EGFR (P00533 25-1210): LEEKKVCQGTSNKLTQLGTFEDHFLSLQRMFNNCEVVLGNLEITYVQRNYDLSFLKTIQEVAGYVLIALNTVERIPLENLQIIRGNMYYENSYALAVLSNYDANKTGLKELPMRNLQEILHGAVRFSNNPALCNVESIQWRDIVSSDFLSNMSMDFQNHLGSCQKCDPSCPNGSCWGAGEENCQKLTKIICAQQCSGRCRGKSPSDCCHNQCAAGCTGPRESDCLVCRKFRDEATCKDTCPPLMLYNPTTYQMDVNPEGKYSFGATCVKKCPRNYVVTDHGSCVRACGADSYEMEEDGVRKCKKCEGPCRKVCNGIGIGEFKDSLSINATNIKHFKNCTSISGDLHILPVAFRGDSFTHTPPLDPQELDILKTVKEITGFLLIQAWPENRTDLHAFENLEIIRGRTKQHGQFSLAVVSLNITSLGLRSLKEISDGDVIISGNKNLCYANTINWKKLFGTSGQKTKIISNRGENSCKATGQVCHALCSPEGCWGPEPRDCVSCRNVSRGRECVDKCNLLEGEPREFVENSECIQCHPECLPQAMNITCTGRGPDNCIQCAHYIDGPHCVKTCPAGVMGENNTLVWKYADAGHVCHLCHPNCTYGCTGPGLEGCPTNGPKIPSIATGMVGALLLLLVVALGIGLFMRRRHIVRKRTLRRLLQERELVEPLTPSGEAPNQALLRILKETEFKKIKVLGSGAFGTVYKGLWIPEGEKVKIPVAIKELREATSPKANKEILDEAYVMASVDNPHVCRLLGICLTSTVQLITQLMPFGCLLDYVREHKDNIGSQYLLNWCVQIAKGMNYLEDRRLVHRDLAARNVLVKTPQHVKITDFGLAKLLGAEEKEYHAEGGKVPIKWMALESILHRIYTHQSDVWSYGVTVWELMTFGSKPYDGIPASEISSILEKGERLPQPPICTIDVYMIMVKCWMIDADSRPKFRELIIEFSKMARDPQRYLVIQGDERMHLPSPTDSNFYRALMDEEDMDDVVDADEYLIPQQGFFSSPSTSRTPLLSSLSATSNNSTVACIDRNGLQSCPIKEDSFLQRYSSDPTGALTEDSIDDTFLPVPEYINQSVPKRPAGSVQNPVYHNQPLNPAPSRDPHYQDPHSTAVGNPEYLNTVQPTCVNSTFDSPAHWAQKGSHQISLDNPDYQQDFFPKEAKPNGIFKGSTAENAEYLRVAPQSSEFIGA
Chain of KDR (VEGFR2) (P35968 790-1356): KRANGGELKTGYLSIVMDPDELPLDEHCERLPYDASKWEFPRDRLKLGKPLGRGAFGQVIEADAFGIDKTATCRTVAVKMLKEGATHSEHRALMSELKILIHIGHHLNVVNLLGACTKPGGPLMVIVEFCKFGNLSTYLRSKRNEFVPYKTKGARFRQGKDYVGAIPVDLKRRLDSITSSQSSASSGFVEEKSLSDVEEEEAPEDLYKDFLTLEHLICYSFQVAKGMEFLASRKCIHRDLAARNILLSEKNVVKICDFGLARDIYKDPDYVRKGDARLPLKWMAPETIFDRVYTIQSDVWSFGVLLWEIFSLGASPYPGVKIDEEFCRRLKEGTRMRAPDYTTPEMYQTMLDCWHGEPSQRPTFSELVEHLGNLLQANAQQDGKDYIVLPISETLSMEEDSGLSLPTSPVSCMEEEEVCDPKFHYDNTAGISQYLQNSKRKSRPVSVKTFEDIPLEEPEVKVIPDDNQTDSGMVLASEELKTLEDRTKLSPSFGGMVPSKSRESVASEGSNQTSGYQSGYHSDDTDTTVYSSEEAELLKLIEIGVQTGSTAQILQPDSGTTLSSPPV

Compound | IC50 [1] | IC50 [2]
O=C(NC1CC1)c1ccccc1Sc1ccc2c(/C=C/c3ccn(CCN4CCCC4)n3)n[nH]c2c1 [Compound I-60, N-cyclopropyl-2-({3-[(E)-2-{1-[2-(pyrrolidin-1-yl)ethyl]-1H-pyrazol-3-yl}vinyl]-1H-indazol-6-yl}thio)benzamide] | 1 to 10 nM | 600 to 6000 nM
O=C(NC1CC1)c1cccc(F)c1Sc1ccc2c(/C=C/c3ccn(CCN4CCCC4)n3)n[nH]c2c1 [Compound I-69] | 10 to 100 nM | 6000 to 60000 nM
CNC(=O)c1ccccc1Sc1ccc2c(/C=C/c3ccc(CN4CCCC4)cn3)n[nH]c2c1 [Compound I-74, N-methyl-2-({3-[(E)-2-{5-[(pyrrolidin-1-yl)methyl]pyridin-2-yl}vinyl]-1H-indazol-6-yl}thio)benzamide] | 1 to 10 nM | 6000 to 60000 nM
CCNC(=O)c1cccc(F)c1Sc1ccc2c(/C=C/c3ccc(CN4CCCC4)cn3)n[nH]c2c1 [Compound I-75, N-ethyl-3-fluoro-2-({3-[(E)-2-{5-[(pyrrolidin-1-yl)methyl]pyridin-2-yl}vinyl]-1H-indazol-6-yl}thio)benzamide] | 1 to 10 nM | 6000 to 60000 nM
O=C(NC1CC1)c1ccccc1Oc1ccc2c(/C=C/c3ccc(CN4CCCC4)cn3)n[nH]c2c1 [Compound I-81, N-cyclopropyl-2-({3-[(E)-2-{5-[(pyrrolidin-1-yl)methyl]pyridin-2-yl}vinyl]-1H-indazol-6-yl}oxy)benzamide] | 10 to 100 nM | 6000 to 60000 nM
CCNC(=O)c1ccc(Sc2ccc3c(/C=C/c4ccc(CN(CC)CC)cn4)n[nH]c3c2)cc1F [Compound I-87, 4-({3-[(E)-2-{5-[(diethylamino)methyl]pyridin-2-yl}vinyl]-1H-indazol-6-yl}thio)-N-ethyl-2-fluorobenzamide] | > 100 nM | > 60000 nM
CCN(CC)Cc1ccc(/C=C/c2n[nH]c3cc(Sc4cc(F)ccc4C(=O)NC)ccc23)nc1 [Compound I-92, 2-({3-[(E)-2-{5-[(diethylamino)methyl]pyridin-2-yl}vinyl]-1H-indazol-6-yl}thio)-4-fluoro-N-methylbenzamide] | 1 to 10 nM | 6000 to 60000 nM
CNC(=O)c1cc(F)ccc1Sc1ccc2c(/C=C/c3ccc(CN4CCCC4)cn3)n[nH]c2c1 [Compound I-95, 5-fluoro-N-methyl-2-({3-[(E)-2-{5-[(pyrrolidin-1-yl)methyl]pyridin-2-yl}vinyl]-1H-indazol-6-yl}thio)benzamide] | 1 to 10 nM | 6000 to 60000 nM
CCNC(=O)c1cccc(F)c1Sc1ccc2c(/C=C/c3cnn(CCCN4CCCC4)c3)n[nH]c2c1 [Compound I-102] | 10 to 100 nM | 6000 to 60000 nM
CCNC(=O)c1ccc(F)cc1Sc1ccc2c(/C=C/c3cnn(CCCN4CCCC4)c3)n[nH]c2c1 [Compound I-103, N-ethyl-4-fluoro-2-({3-[(E)-2-{1-[3-(pyrrolidin-1-yl)propyl]-1H-pyrazol-4-yl}vinyl]-1H-indazol-6-yl}thio)benzamide] | ≤ 1 nM | 6000 to 60000 nM
CCN(CC)CCc1ccc(/C=C/c2n[nH]c3cc(Sc4cc(F)ccc4C(=O)NC4CC4)ccc23)nc1 [Compound I-108, N-cyclopropyl-2-({3-[(E)-2-{5-[2-(diethylamino)ethyl]pyridin-2-yl}vinyl]-1H-indazol-6-yl}thio)-4-fluorobenzamide] | ≤ 1 nM | 6000 to 60000 nM
CCNC(=O)c1cccc(F)c1Sc1ccc2c(/C=C/c3ccc(CN(CC)CC)cn3)n[nH]c2c1 [Compound I-111, 2-({3-[(E)-2-{5-[(diethylamino)methyl]pyridin-2-yl}vinyl]-1H-indazol-6-yl}thio)-N-ethyl-3-fluorobenzamide] | 1 to 10 nM | 6000 to 60000 nM
O=C(NC1CC1)c1cccc(F)c1Sc1ccc2c(/C=C/c3cc(OCCN4CCCC4)ccn3)n[nH]c2c1 [Compound I-112, N-cyclopropyl-3-fluoro-2-({3-[(E)-2-{4-[2-(pyrrolidin-1-yl)ethoxy]pyridin-2-yl}vinyl]-1H-indazol-6-yl}thio)benzamide] | 10 to 100 nM | 6000 to 60000 nM
CCNC(=O)c1cccc(F)c1Sc1ccc2c(/C=C/c3cc(CN4CCCC4)ccn3)n[nH]c2c1 [Compound I-114, N-ethyl-3-fluoro-2-({3-[(E)-2-{4-[(pyrrolidin-1-yl)methyl]pyridin-2-yl}vinyl]-1H-indazol-6-yl}thio)benzamide] | > 100 nM | > 60000 nM
CCNC(=O)c1cc(F)ccc1Sc1ccc2c(/C=C/c3cc(CCCN4CCCC4)ccn3)n[nH]c2c1 [Compound I-122, N-ethyl-5-fluoro-2-({3-[(E)-2-{4-[3-(pyrrolidin-1-yl)propyl]pyridin-2-yl}vinyl]-1H-indazol-6-yl}thio)benzamide] | 1 to 10 nM | > 60000 nM
CCNC(=O)c1cccc(F)c1Sc1ccc2c(/C=C/c3cccc(CCN4CCCC4)n3)n[nH]c2c1 [Compound I-129, N-ethyl-3-fluoro-2-({3-[(E)-2-{6-[2-(pyrrolidin-1-yl)ethyl]pyridin-2-yl}vinyl]-1H-indazol-6-yl}thio)benzamide] | 10 to 100 nM | > 60000 nM
O=C(NC1CC1)c1ccccc1Sc1ccc2c(C#Cc3ccc(OCCN4CCCC4)cn3)n[nH]c2c1 [Compound I-139, N-cyclopropyl-2-{[3-(2-{5-[2-(pyrrolidin-1-yl)ethoxy]pyridin-2-yl}ethynyl)-1H-indazol-6-yl]thio}benzamide] | 10 to 100 nM | > 60000 nM

The next lines start with the values.

IC50 [1] | IC50 [2] | Compound
≤ 1 nM | 6000 to 60000 nM | O=C(NC1CC1)c1cc(F)ccc1Sc1ccc2c(/C=C/c3cnn(CCCN4CCCC4)c3)n[nH]c2c1 [Compound I-46, N-cyclopropyl-5-fluoro-2-({3-[(E)-2-{1-[3-(pyrrolidin-1-yl)propyl]-1H-pyrazol-4-yl}vinyl]-1H-indazol-6-yl}thio)benzamide]
10 to 100 nM | > 60000 nM | O=C(NC1CC1)c1cccc(F)c1Sc1ccc2c(/C=C/c3cc(CCCN4CCCC4)ccn3)n[nH]c2c1 [Compound I-123]
10 to 100 nM | 6000 to 60000 nM | O=C(NC1CC1)c1cccc(F)c1Sc1ccc2c(/C=C/c3cccc(CCCN4CCCC4)n3)n[nH]c2c1 [Compound I-124]
10 to 100 nM | > 60000 nM | O=C(NC1CC1)c1cccc(F)c1Sc1ccc2c(/C=C/c3cccc(CCN4CCCC4)n3)n[nH]c2c1 [Compound I-128, N-cyclopropyl-3-fluoro-2-({3-[(E)-2-{6-[2-(pyrrolidin-1-yl)ethyl]pyridin-2-yl}vinyl]-1H-indazol-6-yl}thio)benzamide]
1 to 10 nM | 6000 to 60000 nM | O=C(NC1CC1)c1cc(F)ccc1Sc1ccc2c(/C=C/c3cccc(CCCN4CCCC4)n3)n[nH]c2c1 [Compound I-132, N-cyclopropyl-5-fluoro-2-({3-[(E)-2-{6-[3-(pyrrolidin-1-yl)propyl]pyridin-2-yl}vinyl]-1H-indazol-6-yl}thio)benzamide]
1 to 10 nM | > 60000 nM | O=C(NC1CC1)c1ccccc1Sc1ccc2c(/C=C/c3cc(CCN4CCCC4)ccn3)n[nH]c2c1 [Compound I-133, N-cyclopropyl-2-({3-[(E)-2-{4-[2-(pyrrolidin-1-yl)ethyl]pyridin-2-yl}vinyl]-1H-indazol-6-yl}thio)benzamide]
10 to 100 nM | > 60000 nM | O=C(NC1CC1)c1cc(F)ccc1Sc1ccc2c(/C=C/c3cc(CCN4CCCC4)ccn3)n[nH]c2c1 [Compound I-135, N-cyclopropyl-5-fluoro-2-({3-[(E)-2-{4-[2-(pyrrolidin-1-yl)ethyl]pyridin-2-yl}vinyl]-1H-indazol-6-yl}thio)benzamide]
1 to 10 nM | > 60000 nM | O=C(NC1CC1)c1cc(F)ccc1Sc1ccc2c(/C=C/c3cccc(CCN4CCCC4)n3)n[nH]c2c1 [Compound I-136, N-cyclopropyl-5-fluoro-2-({3-[(E)-2-{6-[2-(pyrrolidin-1-yl)ethyl]pyridin-2-yl}vinyl]-1H-indazol-6-yl}thio)benzamide]
1 to 10 nM | > 60000 nM | O=C(NC1CC1)c1cc(F)ccc1Sc1ccc2c(/C=C/c3cc(CN4CCCC4)ccn3)n[nH]c2c1 [Compound I-137, N-cyclopropyl-5-fluoro-2-({3-[(E)-2-{4-[(pyrrolidin-1-yl)methyl]pyridin-2-yl}vinyl]-1H-indazol-6-yl}thio)benzamide]
1 to 10 nM | > 60000 nM | O=C(NC1CC1)c1cc(F)ccc1Sc1ccc2c(/C=C/c3cccc(CN4CCCC4)n3)n[nH]c2c1 [Compound I-138, N-cyclopropyl-5-fluoro-2-({3-[(E)-2-{6-[(pyrrolidin-1-yl)methyl]pyridin-2-yl}vinyl]-1H-indazol-6-yl}thio)benzamide]
